Assay results from US8735384B2, “Amino heteroaryl compounds as beta-secretase modulators and methods of use” (Amgen Inc., priority 2010, dated 2014).
Read-outs that look alike come from different tables or passages of the source. Values belong to the compound of their own block, whether it stands above or below them.

Tests used:
[1] = molecular target: BACE1 (Homo sapiens, UniProt P56817); assay: In vitro enzymatic BACE FRET assay; assay type: biochemical; conditions: beta secretase enzyme 0.2 nM, FRET substrate 50 nM, pH 4.2; read-out: BACE1 FRET assay (IC50 class)
BACE1, sequence (P56817 46-501, species assumed): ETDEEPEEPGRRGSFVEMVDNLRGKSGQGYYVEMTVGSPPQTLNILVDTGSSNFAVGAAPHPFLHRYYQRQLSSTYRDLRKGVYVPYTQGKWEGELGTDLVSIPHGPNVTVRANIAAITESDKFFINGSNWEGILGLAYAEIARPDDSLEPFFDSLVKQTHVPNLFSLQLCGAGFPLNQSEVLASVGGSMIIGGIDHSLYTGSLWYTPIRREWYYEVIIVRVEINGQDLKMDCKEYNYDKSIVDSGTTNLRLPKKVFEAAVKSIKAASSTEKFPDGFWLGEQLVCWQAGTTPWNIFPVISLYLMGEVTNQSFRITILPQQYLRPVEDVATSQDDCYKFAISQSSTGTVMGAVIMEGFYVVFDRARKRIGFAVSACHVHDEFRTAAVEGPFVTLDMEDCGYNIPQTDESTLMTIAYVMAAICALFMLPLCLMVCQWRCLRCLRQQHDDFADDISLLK
How it was run: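 Enzyme activity was measured as release of quenching from a 50 nM fluorophore/quencher peptide spanning the cleavage site, over 1 h. This followed 1 h pre-incubation of 0.2 nM enzyme with compound dilutions at pH 4.2 (acetate, 10% DMSO, genapol). Tris addition ended the reaction before fluorescence was measured.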

[2] = test system: Aβ40 in conditioned medium of cells stably expressing Amyloid Precursor Protein (APP); assay: In vitro BACE cell-based assay (HEK cell assay), Aβ40 sandwich ELISA; conditions: inhibition of Aβ40, 24 h incubation, read-out: HEK cell assay (IC50 class)
How it was run: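 Aβ40 in conditioned medium measured after 24 h compound exposure (10-point series, 100 μM or 10 μM start, 0.1% DMSO) of cells stably expressing APP, seeded 40K/well. Detection: pAb40/6E10-biotin sandwich ELISA at 4°C with time-resolved europium read-out; IC50 derived from percent of control.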

IC50 [1]: < 100 nM
IC50 ([2]; Homo sapiens, HEK293, 24 h): 1010 to 5000 nM
SMILES: Cc1cccc(C(=O)Cc2ccccc2)c1-c1ccc2nc(N)c(N3CCOCC3)cc2c1 [Example 185, 1-(2-(2-amino-3-morpholinoquinolin-6-yl)-3-methylphenyl)-2-phenylethanone]

IC50 [1]: < 100 nM
IC50 [2]: 100 to 500 nM
SMILES: Cc1cccc(/C(=N/O)c2ccccc2)c1-c1ccc2nc(N)c(N3CCOCC3)cc2c1 [Example 190, (E)-(2-(2-amino-3-morpholinoquinolin-6-yl)-3-methylphenyl)(phenyl)methanone oxime]

IC50 [1]: < 100 nM
IC50 ([2]; Homo sapiens, HEK293, 24 h): 1010 to 5000 nM
SMILES: CO/N=C(/c1ccccc1)c1cccc(C)c1-c1ccc2nc(N)c(N3CCOCC3)cc2c1 [Example 191, (Z)-(2-(2-amino-3-morpholinoquinolin-6-yl)-3-methylphenyl)(phenyl)methanone O-methyl oxime]

IC50 [1]: < 100 nM
IC50 ([2]; Homo sapiens, HEK293, 24 h): < 100 nM
SMILES: Cc1ccccc1C(N)c1cccc(C)c1-c1ccc2nc(N)c(N3CCOCC3)cc2c1 (stereo not drawn) [Example 193, 6-(2-(amino(o-tolyl)methyl)-6-methylphenyl)-3-morpholinoquinolin-2-amine]

IC50 [1]: 501 to 1000 nM
IC50 ([2]; Homo sapiens, HEK293, 24 h): 100 to 500 nM
SMILES: Cc1cccnc1C(N)c1cccc(C)c1-c1ccc2nc(N)c(N3CCOCC3)cc2c1 (stereo not drawn) [Example 194, 6-(2-(amino(3-methylpyridin-2-yl)methyl)-6-methylphenyl)-3-morpholinoquinolin-2-amine]

IC50 [1]: < 100 nM
IC50 ([2]; Homo sapiens, HEK293, 24 h): < 100 nM
SMILES: COc1ccccc1C(N)c1cccc(C)c1-c1ccc2nc(N)c(N3CCOCC3)cc2c1 (stereo not drawn) [Example 195, 6-(2-(amino(2-methoxyphenyl)methyl)-6-methylphenyl)-3-morpholinoquinolin-2-amine]

IC50 [1]: 100 to 500 nM
IC50 ([2]; Homo sapiens, HEK293, 24 h): 100 to 500 nM
SMILES: Cc1cccc(C(N)c2ccccn2)c1-c1ccc2nc(N)c(N3CCOCC3)cc2c1 (stereo not drawn) [Example 196, 6-(2-(amino(pyridin-2-yl)methyl)-6-methylphenyl)-3-morpholinoquinolin-2-amine]

IC50 [1]: 100 to 500 nM
IC50 ([2]; Homo sapiens, HEK293, 24 h): 100 to 500 nM
SMILES: Cc1cccc(C(N)c2ncccc2Cl)c1-c1ccc2nc(N)c(N3CCOCC3)cc2c1 (stereo not drawn) [Example 197, 6-(2-(amino(3-chloropyridin-2-yl)methyl)-6-methylphenyl)-3-morpholinoquinolin-2-amine]

IC50 [1]: < 100 nM
IC50 ([2]; Homo sapiens, HEK293, 24 h): 100 to 500 nM
SMILES: Cc1cccc(C(O)c2ccccc2)c1-c1ccc2nc(N)c(N3CCOCC3)cc2c1 (stereo not drawn) [Example 199, (2-(2-amino-3-morpholinoquinolin-6-yl)-3-methylphenyl)(phenyl)methanol]

IC50 [1]: < 100 nM
IC50 ([2]; Homo sapiens, HEK293, 24 h): 1010 to 5000 nM
SMILES: Cc1cccc(Cc2ccccc2F)c1-c1ccc2nc(N)c(N3CCOCC3)cc2c1 [Example 202, 6-(2-(2-fluorobenzyl)-6-methylphenyl)-3-morpholinoquinolin-2-amine]

Further lines, the compound ahead of its results:

SMILES: CC=CC(=O)c1cccc(C)c1-c1ccc2nc(N)c(N3CCOCC3)cc2c1 [Example 183, 1-(2-(2-amino-3-morpholinoquinolin-6-yl)-3-methylphenyl)but-2-en-1-one]
IC50 [1]: 100 to 500 nM
IC50 ([2]; Homo sapiens, HEK293, 24 h): 1010 to 5000 nM

SMILES: Cc1cccc(C(=O)C2CCCC2)c1-c1ccc2nc(N)c(N3CCOCC3)cc2c1 [Example 184, (2-(2-amino-3-morpholinoquinolin-6-yl)-3-methylphenyl)(cyclopentyl)methanone]
IC50 [1]: < 100 nM
IC50 ([2]; Homo sapiens, HEK293, 24 h): 501 to 1000 nM

SMILES: Cc1cccc(C(=O)C2CC2)c1-c1ccc2nc(N)c(N3CCOCC3)cc2c1 [Example 186, (2-(2-amino-3-morpholinoquinolin-6-yl)-3-methylphenyl)(cyclopropyl)methanone]
IC50 [1]: 100 to 500 nM
IC50 ([2]; Homo sapiens, HEK293, 24 h): 1010 to 5000 nM

SMILES: COc1cccnc1C(=O)c1cccc(C)c1-c1ccc2nc(N)c(N3CCOCC3)cc2c1 [Example 187, (2-(2-amino-3-morpholinoquinolin-6-yl)-3-methylphenyl)(3-methoxypyridin-2-yl)methanone]
IC50 [1]: < 100 nM
IC50 ([2]; Homo sapiens, HEK293, 24 h): 100 to 500 nM

SMILES: COc1ccccc1C(=N)c1cccc(C)c1-c1ccc2nc(N)c(N3C[C@@H]4C[C@H]3CO4)cc2c1 [Example 188, 3-((1S,4S)-2-oxa-5-azabicyclo[2.2.1]heptan-5-yl)-6-(2-(imino(2-methoxyphenyl)methyl)-6-methylphenyl)quinolin-2-amine]
IC50 [1]: 100 to 500 nM
IC50 ([2]; Homo sapiens, HEK293, 24 h): 501 to 1000 nM

SMILES: Cc1cccnc1C(=O)c1cccc(C)c1-c1ccc2nc(N)c(N3CCOCC3)cc2c1 [Example 189, (2-(2-amino-3-morpholinoquinolin-6-yl)-3-methylphenyl)(3-methylpyridin-2-yl)methanone]
IC50 [1]: 100 to 500 nM
IC50 ([2]; Homo sapiens, HEK293, 24 h): 501 to 1000 nM

SMILES: Nc1nc2ccc(-c3c(CC4OCCO4)cccc3C(=O)N3CCCC3)cc2cc1N1CCOCC1 [Example 192, (3-((1,3-dioxolan-2-yl)methyl)-2-(2-amino-3-morpholinoquinolin-6-yl)phenyl)(pyrrolidin-1-yl)methanone]
IC50 [1]: < 100 nM
IC50 ([2]; Homo sapiens, HEK293, 24 h): 100 to 500 nM

SMILES: COc1cccnc1C(N)c1cccc(C)c1-c1ccc2nc(N)c(N3CCOCC3)cc2c1 (stereo not drawn) [Example 198, 6-(2-(amino(3-methoxypyridin-2-yl)methyl)-6-methylphenyl)-3-morpholinoquinolin-2-amine]
IC50 [1]: 100 to 500 nM
IC50 ([2]; Homo sapiens, HEK293, 24 h): < 100 nM

SMILES: Cc1cccc(Cc2cccc(C#N)c2)c1-c1ccc2nc(N)c(N3CCOCC3)cc2c1 [Example 200, 3-(2-(2-amino-3-morpholinoquinolin-6-yl)-3-methylbenzyl)benzonitrile]
IC50 [1]: < 100 nM
IC50 ([2]; Homo sapiens, HEK293, 24 h): 1010 to 5000 nM

SMILES: Cc1cccc(Cc2ccc(F)cc2)c1-c1ccc2nc(N)c(N3CCOCC3)cc2c1 [Example 201, 6-(2-(4-fluorobenzyl)-6-methylphenyl)-3-morpholinoquinolin-2-amine]
IC50 [1]: < 100 nM
IC50 ([2]; Homo sapiens, HEK293, 24 h): 1010 to 5000 nM

SMILES: COc1cccc(Cc2cccc(C)c2-c2ccc3nc(N)c(N4CCOCC4)cc3c2)c1 [Example 203, 6-(2-(3-methoxybenzyl)-6-methylphenyl)-3-morpholinoquinolin-2-amine]
IC50 [1]: < 100 nM
IC50 ([2]; Homo sapiens, HEK293, 24 h): > 5000 nM

SMILES: Cc1cccc(-n2cc(Cl)cn2)c1-c1ccc2nc(N)c(N3CCOCC3)cc2c1 [Example 204, 6-(2-(4-chloro-1H-pyrazol-1-yl)-6-methylphenyl)-3-morpholinoquinolin-2-amine]
IC50 [1]: 501 to 1000 nM
IC50 ([2]; Homo sapiens, HEK293, 24 h): > 5000 nM

SMILES: Cc1cccc(C(=O)N2CCCC2)c1-c1ccc2nc(N)c(C3CCOC(C)(C)C3)cc2c1 (stereo not drawn) [Example 205, (2-(2-amino-3-(2,2-dimethyltetrahydro-2H-pyran-4-yl)quinolin-6-yl)-3-methylphenyl)(pyrrolidin-1-yl)methanone]
IC50 [1]: < 100 nM
IC50 ([2]; Homo sapiens, HEK293, 24 h): < 100 nM

SMILES: Cc1cccc(C(=O)N2CCCC2)c1-c1ccc2nc(N)c(C3CCCOCC3)cc2c1 (stereo not drawn) [Example 206, (2-(2-amino-3-(oxepan-4-yl)quinolin-6-yl)-3-methylphenyl)(pyrrolidin-1-yl)methanone]
IC50 [1]: < 100 nM
IC50 ([2]; Homo sapiens, HEK293, 24 h): 100 to 500 nM

SMILES: Cc1cccc(C(=O)N2CCCC2)c1-c1ccc2nc(N)c(C3CCCO3)cc2c1 (stereo not drawn) [Example 207, (2-(2-amino-3-(tetrahydrofuran-2-yl)quinolin-6-yl)-3-methylphenyl)(pyrrolidin-1-yl)methanone]
IC50 [1]: 100 to 500 nM
IC50 ([2]; Homo sapiens, HEK293, 24 h): 1010 to 5000 nM

SMILES: Cc1cccc(COc2cc(C(F)(F)F)ccc2Cl)c1-c1ccc2nc(N)c(N3CCOCC3)cc2c1 [Example 208, 6-(2-((2-chloro-5-(trifluoromethyl)phenoxy)methyl)-6-methylphenyl)-3-morpholinoquinolin-2-amine]
IC50 [1]: < 100 nM
IC50 ([2]; Homo sapiens, HEK293, 24 h): 100 to 500 nM

SMILES: Cc1cccc(C(=O)N2CCCC2)c1-c1ccc2nc(N)c(N3CCOC(C)C3C)cc2c1 (stereo not drawn) [Example 209, (2-(2-amino-3-(2,3-dimethylmorpholino)quinolin-6-yl)-3-methylphenyl)(pyrrolidin-1-yl)methanone]
IC50 [1]: < 100 nM
IC50 ([2]; Homo sapiens, HEK293, 24 h): 501 to 1000 nM

SMILES: Cc1cccc(C(=O)N2CCCC2)c1-c1ccc2nc(N)c(N3CCOC[C@@H]3C)cc2c1 [Example 210, (S)-(2-(2-amino-3-(3-methylmorpholino)quinolin-6-yl)-3-methylphenyl)(pyrrolidin-1-yl)methanone]
IC50 [1]: 501 to 1000 nM
IC50 ([2]; Homo sapiens, HEK293, 24 h): 1010 to 5000 nM

SMILES: Cc1cccc(C(=O)N2CCC(F)(F)C2)c1-c1ccc2nc(N)c(C3CCOCC3)cc2c1 [Example 211, (2-(2-amino-3-(tetrahydro-2H-pyran-4-yl)quinolin-6-yl)-3-methylphenyl)(3,3-difluoropyrrolidin-1-yl)methanone]
IC50 [1]: < 100 nM
IC50 ([2]; Homo sapiens, HEK293, 24 h): 100 to 500 nM

SMILES: COc1ccccc1C(=O)c1cccc(C)c1-c1ccc2nc(N)c(C3CCOCC3)cc2c1 [Example 212, (2-(2-amino-3-(tetrahydro-2H-pyran-4-yl)quinolin-6-yl)-3-methylphenyl)(2-methoxyphenyl)methanone]
IC50 [1]: < 100 nM
IC50 ([2]; Homo sapiens, HEK293, 24 h): < 100 nM

SMILES: Cc1cccc(C(=O)N2CCCC2)c1-c1ccc2nc(N)c(N3CCOC(CC(C)C)C3)cc2c1 (stereo not drawn) [Example 213, (2-(2-amino-3-(2-isobutylmorpholino)quinolin-6-yl)-3-methylphenyl)(pyrrolidin-1-yl)methanone]
IC50 [1]: < 100 nM
IC50 ([2]; Homo sapiens, HEK293, 24 h): 1010 to 5000 nM

SMILES: COCCC1CN(c2cc3cc(-c4c(C)cccc4C(=O)N4CCCC4)ccc3nc2N)CCO1 (stereo not drawn) [Example 214, (2-(2-amino-3-(2-(2-methoxyethyl)morpholino)quinolin-6-yl)-3-methylphenyl)(pyrrolidin-1-yl)methanone]
IC50 [1]: < 100 nM
IC50 ([2]; Homo sapiens, HEK293, 24 h): 100 to 500 nM

SMILES: Cc1cccc(C(=O)N2CCCC2)c1-c1ccc2nc(N)c(N3CCOC(C)(C)C3)cc2c1 [Example 215, (2-(2-amino-3-(2,2-dimethylmorpholino)quinolin-6-yl)-3-methylphenyl)(pyrrolidin-1-yl)methanone]
IC50 [1]: < 100 nM
IC50 ([2]; Homo sapiens, HEK293, 24 h): 501 to 1000 nM
